Laboratory results published in patent publication US10815230B2, “Casein kinase 1 delta inhibitor” (ELECTROPHORETICS LIMITED, priority 2015, dated 2020).

Columns and labels:
Experiment in all cases: KINOMEscan binding assay
Conditions in all cases: read-out: % Ctrl @ 10000 nM
PIP5K2B = PIP5K2B (Homo sapiens, UniProt P78356)
CTK = CTK (Homo sapiens, UniProt P42679)
LYN = LYN (Homo sapiens, UniProt P07948)
MEK2 = MEK2 (Homo sapiens, UniProt P36507)
IKK-beta = IKK-beta (Homo sapiens, UniProt O14920)
MYLK4 = MYLK4 (Homo sapiens, UniProt Q86YV6)
ABL2 = ABL2 (Homo sapiens, UniProt P42684)
CDK7 = CDK7 (Homo sapiens, UniProt P50613)
MST1 = MST1 (Homo sapiens, UniProt Q13043)
ROS1 = ROS1 (Homo sapiens, UniProt P08922)
ACVR1 = ACVR1 (Homo sapiens, UniProt Q04771)
ADCK3 = ADCK3 (Homo sapiens, UniProt Q8NI60)
PIM3 = PIM3 (Homo sapiens, UniProt Q86V86)
PIK3CA (H1047L) = PIK3CA (H1047L) (Homo sapiens, UniProt P42336, H1047L)
CDKL3 = CDKL3 (Homo sapiens, UniProt Q8IVW4)
IRAK4 = IRAK4 (Homo sapiens, UniProt Q9NWZ3)
RIPK4 = RIPK4 (Homo sapiens, UniProt P57078)
MAP3K4 = molecular target: T1, MAP3K4 (Homo sapiens, UniProt Q9Y6R4)
T1 construct: T7 phage fusion (most assays) or DNA label after HEK293 expression; purchased DiscoveRx (KINOMEscan, LeadHunter Discovery services); host or cells: T7 phage in E. coli (BL21-derived) or HEK293

INSR = INSR (Homo sapiens, UniProt P06213)
TNK2 = TNK2 (Homo sapiens, UniProt Q07912)
TRKA = TRKA (Homo sapiens, UniProt P04629)
NEK3 = NEK3 (Homo sapiens, UniProt P51956)
SRMS = SRMS (Homo sapiens, UniProt Q9H3Y6)
MEK3 = MEK3 (Homo sapiens, UniProt P46734)
ASK2 = ASK2 (Homo sapiens, UniProt O95382)
AURKA = AURKA (Homo sapiens, UniProt O14965)
[1] = molecular target: ABL1 (F317L) non-phosphorylated (Homo sapiens, UniProt P00519, F317L)
DRAK2 = DRAK2 (Homo sapiens, UniProt O94768)
PRKD1 = PRKD1 (Homo sapiens, UniProt Q15139)
CDC2L1 = CDC2L1 (Homo sapiens, UniProt P21127)
JNK3 = JNK3 (Homo sapiens, UniProt P53779)
RIPK1 = RIPK1 (Homo sapiens, UniProt Q13546)
HIPK2 = HIPK2 (Homo sapiens, UniProt Q9H2X6)
BRK = BRK (Homo sapiens, UniProt Q13882)
SGK2 = SGK2 (Homo sapiens, UniProt Q9HBY8)
TTK = TTK (Homo sapiens, UniProt P33981)
TAOK2 = TAOK2 (Homo sapiens, UniProt Q9UL54)
EGFR (G719C) = EGFR (G719C) (Homo sapiens, UniProt P00533, G719C)
MST1R = MST1R (Homo sapiens, UniProt Q04912)
MLK3 = MLK3 (Homo sapiens, UniProt Q16584)
DCAMKL2 = DCAMKL2 (Homo sapiens, UniProt Q8N568)
EPHA2 = EPHA2 (Homo sapiens, UniProt P29317)

INSR, sequence (P06213 28-1382): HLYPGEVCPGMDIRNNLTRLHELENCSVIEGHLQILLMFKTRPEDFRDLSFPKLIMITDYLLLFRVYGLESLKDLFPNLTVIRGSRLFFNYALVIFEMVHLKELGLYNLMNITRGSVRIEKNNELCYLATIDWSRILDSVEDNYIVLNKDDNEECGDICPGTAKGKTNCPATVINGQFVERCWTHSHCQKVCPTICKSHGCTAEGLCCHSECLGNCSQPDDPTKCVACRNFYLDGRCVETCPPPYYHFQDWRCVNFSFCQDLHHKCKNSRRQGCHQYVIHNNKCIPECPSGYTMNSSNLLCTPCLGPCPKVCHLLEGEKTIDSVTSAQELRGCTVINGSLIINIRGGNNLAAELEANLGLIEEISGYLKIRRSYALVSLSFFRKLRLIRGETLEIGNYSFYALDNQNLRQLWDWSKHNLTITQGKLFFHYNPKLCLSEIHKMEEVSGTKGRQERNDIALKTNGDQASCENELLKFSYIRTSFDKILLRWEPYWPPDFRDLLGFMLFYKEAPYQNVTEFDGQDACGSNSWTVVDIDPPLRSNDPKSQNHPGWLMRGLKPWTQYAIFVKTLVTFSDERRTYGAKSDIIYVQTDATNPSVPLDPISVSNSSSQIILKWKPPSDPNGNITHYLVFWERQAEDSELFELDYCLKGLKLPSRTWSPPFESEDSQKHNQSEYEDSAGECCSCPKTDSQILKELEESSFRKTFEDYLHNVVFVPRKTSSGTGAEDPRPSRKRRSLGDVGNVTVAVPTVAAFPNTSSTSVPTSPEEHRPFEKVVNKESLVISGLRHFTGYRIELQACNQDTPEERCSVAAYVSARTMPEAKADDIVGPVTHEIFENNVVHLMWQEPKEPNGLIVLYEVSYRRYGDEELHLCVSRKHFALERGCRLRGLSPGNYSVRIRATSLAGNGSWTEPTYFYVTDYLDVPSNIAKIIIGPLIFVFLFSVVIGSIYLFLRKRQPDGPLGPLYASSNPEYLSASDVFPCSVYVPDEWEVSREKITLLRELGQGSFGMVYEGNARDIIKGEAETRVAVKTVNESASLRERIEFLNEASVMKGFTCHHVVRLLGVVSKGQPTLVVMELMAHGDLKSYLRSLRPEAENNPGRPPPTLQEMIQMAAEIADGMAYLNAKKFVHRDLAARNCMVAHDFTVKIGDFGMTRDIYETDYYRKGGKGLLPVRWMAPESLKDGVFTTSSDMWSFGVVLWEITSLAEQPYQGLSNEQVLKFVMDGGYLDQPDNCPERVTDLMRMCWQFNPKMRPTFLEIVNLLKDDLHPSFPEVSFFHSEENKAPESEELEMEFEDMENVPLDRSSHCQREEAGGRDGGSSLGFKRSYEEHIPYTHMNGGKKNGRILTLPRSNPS
ABL1 (F317L) non-phosphorylated, sequence (P00519 whole entry F317L): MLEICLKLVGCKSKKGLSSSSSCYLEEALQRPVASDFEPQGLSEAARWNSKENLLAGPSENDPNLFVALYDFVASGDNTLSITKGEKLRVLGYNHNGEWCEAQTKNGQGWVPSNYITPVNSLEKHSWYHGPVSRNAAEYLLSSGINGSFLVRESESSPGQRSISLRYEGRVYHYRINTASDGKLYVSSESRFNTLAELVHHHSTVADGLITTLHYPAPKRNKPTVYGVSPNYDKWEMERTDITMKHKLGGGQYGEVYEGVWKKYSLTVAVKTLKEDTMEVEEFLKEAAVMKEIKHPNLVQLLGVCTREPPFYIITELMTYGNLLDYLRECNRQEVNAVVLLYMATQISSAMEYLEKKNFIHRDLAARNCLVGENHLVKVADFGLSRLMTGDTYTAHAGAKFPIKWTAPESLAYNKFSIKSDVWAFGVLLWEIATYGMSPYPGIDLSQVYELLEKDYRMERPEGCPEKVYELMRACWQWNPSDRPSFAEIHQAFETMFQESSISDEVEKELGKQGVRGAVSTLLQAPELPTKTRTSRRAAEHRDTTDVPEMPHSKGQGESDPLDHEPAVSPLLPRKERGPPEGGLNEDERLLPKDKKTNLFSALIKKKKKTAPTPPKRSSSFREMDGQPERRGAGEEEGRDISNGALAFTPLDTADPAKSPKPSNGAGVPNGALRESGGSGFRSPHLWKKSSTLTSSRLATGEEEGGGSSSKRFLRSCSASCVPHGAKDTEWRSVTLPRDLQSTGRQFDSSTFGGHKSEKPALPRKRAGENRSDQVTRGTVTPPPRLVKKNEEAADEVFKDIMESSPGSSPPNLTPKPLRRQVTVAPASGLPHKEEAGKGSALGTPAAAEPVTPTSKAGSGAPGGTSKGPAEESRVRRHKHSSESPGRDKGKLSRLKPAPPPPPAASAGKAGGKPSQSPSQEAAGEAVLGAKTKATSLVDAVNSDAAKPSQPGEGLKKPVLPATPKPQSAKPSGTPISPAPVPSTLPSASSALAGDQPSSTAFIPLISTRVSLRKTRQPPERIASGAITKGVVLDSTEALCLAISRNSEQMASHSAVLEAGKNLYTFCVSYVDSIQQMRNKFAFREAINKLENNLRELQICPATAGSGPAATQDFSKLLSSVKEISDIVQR
EGFR (G719C), sequence (P00533 25-1210 G719C): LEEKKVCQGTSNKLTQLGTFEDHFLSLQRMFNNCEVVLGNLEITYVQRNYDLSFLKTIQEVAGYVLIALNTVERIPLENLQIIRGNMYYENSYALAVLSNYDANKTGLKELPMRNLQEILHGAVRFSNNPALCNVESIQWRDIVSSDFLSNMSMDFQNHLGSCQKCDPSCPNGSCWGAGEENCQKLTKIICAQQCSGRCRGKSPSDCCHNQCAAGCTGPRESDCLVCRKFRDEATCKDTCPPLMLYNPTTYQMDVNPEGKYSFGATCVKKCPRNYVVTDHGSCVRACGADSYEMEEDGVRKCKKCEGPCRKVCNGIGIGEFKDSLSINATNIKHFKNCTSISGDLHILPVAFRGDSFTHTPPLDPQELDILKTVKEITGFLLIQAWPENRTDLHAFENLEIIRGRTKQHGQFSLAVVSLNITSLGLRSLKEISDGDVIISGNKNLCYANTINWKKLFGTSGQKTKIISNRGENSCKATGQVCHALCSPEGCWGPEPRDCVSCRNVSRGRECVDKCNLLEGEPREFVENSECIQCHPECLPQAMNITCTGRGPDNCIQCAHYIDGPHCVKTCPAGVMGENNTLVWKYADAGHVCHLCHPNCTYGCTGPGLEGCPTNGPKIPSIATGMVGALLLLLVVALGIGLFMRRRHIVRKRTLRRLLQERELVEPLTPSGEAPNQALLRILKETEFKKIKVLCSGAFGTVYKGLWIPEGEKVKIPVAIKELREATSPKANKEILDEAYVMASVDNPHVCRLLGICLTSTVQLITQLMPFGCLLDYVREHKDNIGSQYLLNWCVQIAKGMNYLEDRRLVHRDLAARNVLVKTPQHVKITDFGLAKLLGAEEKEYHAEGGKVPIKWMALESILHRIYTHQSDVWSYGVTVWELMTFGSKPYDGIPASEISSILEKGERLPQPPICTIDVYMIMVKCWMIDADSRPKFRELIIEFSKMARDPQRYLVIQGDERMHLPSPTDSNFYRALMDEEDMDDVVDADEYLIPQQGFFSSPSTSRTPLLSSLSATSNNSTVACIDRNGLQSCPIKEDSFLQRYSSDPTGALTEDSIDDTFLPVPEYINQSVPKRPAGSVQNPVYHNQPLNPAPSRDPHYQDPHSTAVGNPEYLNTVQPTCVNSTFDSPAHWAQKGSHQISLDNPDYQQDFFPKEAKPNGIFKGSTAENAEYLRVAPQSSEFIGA
JNK3, sequence (P53779 whole entry): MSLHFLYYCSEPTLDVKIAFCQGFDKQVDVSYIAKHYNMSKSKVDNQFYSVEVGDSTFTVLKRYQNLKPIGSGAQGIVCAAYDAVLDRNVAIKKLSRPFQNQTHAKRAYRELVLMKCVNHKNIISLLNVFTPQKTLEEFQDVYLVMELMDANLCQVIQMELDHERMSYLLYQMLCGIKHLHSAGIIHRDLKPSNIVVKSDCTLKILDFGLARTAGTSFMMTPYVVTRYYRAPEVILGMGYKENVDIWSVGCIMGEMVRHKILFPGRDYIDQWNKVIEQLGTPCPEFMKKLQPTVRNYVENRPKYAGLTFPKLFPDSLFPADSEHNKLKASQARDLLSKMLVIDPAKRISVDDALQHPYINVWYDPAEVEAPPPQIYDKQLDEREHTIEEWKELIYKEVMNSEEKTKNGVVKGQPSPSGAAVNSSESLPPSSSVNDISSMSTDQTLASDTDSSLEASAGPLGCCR
PIP5K2B, sequence (P78356 whole entry): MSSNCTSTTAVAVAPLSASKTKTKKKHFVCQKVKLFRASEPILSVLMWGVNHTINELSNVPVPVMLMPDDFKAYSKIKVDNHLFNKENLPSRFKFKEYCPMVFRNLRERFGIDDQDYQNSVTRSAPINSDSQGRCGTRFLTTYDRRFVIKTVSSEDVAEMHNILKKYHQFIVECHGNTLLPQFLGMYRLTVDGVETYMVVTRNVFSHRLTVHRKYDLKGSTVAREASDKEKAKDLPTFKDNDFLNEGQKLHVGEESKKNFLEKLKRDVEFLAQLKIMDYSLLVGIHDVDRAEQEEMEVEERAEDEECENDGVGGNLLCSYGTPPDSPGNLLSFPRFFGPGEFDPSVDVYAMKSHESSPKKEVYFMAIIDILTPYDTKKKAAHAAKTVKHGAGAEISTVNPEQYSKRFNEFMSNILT

Nc1ncc(-c2nc3ccccc3o2)c(-c2ccncc2)n1 [Comparative Compound 324, 5-(1,3-benzoxazol-2-yl)-4-(pyridine-4-yl)pyrimidin-2-amine]
remaining binding at 10 µM (PIP5K2B): 100%
remaining binding at 10 µM (CTK): 100%
remaining binding at 10 µM (LYN): 99%
remaining binding at 10 µM (MEK2): 82%
remaining binding at 10 µM (IKK-beta): 99%
remaining binding at 10 µM (MYLK4): 98%
remaining binding at 10 µM (ABL2): 85%
remaining binding at 10 µM (CDK7): 70%
remaining binding at 10 µM (MST1): 92%
remaining binding at 10 µM (ROS1): 100%
remaining binding at 10 µM (ACVR1): 100%
remaining binding at 10 µM (ADCK3): 88%
remaining binding at 10 µM (PIM3): 94%
remaining binding at 10 µM (PIK3CA (H1047L)): 100%
remaining binding at 10 µM (CDKL3): 100%
remaining binding at 10 µM (IRAK4): 100%
remaining binding at 10 µM (RIPK4): 65%
remaining binding at 10 µM (MAP3K4): 51%
remaining binding at 10 µM (INSR): 100%
remaining binding at 10 µM (TNK2): 100%
remaining binding at 10 µM (TRKA): 77%
remaining binding at 10 µM (NEK3): 69%
remaining binding at 10 µM (SRMS): 100%
remaining binding at 10 µM (MEK3): 80%
remaining binding at 10 µM (ASK2): 99%
remaining binding at 10 µM (AURKA): 99%
remaining binding at 10 µM [1]: 100%
remaining binding at 10 µM (DRAK2): 87%
remaining binding at 10 µM (PRKD1): 100%
remaining binding at 10 µM (CDC2L1): 91%
remaining binding at 10 µM (JNK3): 6%
remaining binding at 10 µM (RIPK1): 100%
remaining binding at 10 µM (HIPK2): 67%
remaining binding at 10 µM (BRK): 99%
remaining binding at 10 µM (SGK2): 100%
remaining binding at 10 µM (TTK): 100%
remaining binding at 10 µM (TAOK2): 98%
remaining binding at 10 µM (EGFR (G719C)): 64%
remaining binding at 10 µM (MST1R): 85%
remaining binding at 10 µM (MLK3): 83%
remaining binding at 10 µM (DCAMKL2): 99%
remaining binding at 10 µM (EPHA2): 98%

CNc1c(C(N)=O)c2ccccn2c1C(=O)c1ccc(F)cc1 [Compound A, 2-methyl-amino-3-[(4-fluorophenyl)carbonyl]indolizine-1-carboxamide]
remaining binding at 10 µM (PIP5K2B): 100%
remaining binding at 10 µM (CTK): 100%
remaining binding at 10 µM (LYN): 54%
remaining binding at 10 µM (MEK2): 24%
remaining binding at 10 µM (IKK-beta): 90%
remaining binding at 10 µM (MYLK4): 43%
remaining binding at 10 µM (ABL2): 68%
remaining binding at 10 µM (CDK7): 56%
remaining binding at 10 µM (MST1): 84%
remaining binding at 10 µM (ROS1): 100%
remaining binding at 10 µM (ACVR1): 95%
remaining binding at 10 µM (ADCK3): 91%
remaining binding at 10 µM (PIM3): 90%
remaining binding at 10 µM (PIK3CA (H1047L)): 100%
remaining binding at 10 µM (CDKL3): 93%
remaining binding at 10 µM (IRAK4): 98%
remaining binding at 10 µM (RIPK4): 78%
remaining binding at 10 µM (MAP3K4): 35%
remaining binding at 10 µM (INSR): 100%
remaining binding at 10 µM (TNK2): 81%
remaining binding at 10 µM (TRKA): 86%
remaining binding at 10 µM (NEK3): 66%
remaining binding at 10 µM (SRMS): 93%
remaining binding at 10 µM (MEK3): 60%
remaining binding at 10 µM (ASK2): 100%
remaining binding at 10 µM (AURKA): 91%
remaining binding at 10 µM [1]: 88%
remaining binding at 10 µM (DRAK2): 87%
remaining binding at 10 µM (PRKD1): 100%
remaining binding at 10 µM (CDC2L1): 85%
remaining binding at 10 µM (JNK3): 48%
remaining binding at 10 µM (RIPK1): 99%
remaining binding at 10 µM (HIPK2): 74%
remaining binding at 10 µM (BRK): 92%
remaining binding at 10 µM (SGK2): 100%
remaining binding at 10 µM (TTK): 92%
remaining binding at 10 µM (TAOK2): 80%
remaining binding at 10 µM (EGFR (G719C)): 32%
remaining binding at 10 µM (MST1R): 81%
remaining binding at 10 µM (MLK3): 83%
remaining binding at 10 µM (DCAMKL2): 82%
remaining binding at 10 µM (EPHA2): 70%
